{"source": "patent EP4674418A1", "about": "“SOLUTION, FREEZE-DRIED FORMULATION, FREEZE-DRIED F[…] PACKAGE, INJECTION, AND INJECTION PREPARATION METHOD” (Ascentawits Pharmaceuticals, Ltd., priority 2023, dated 2024)", "key": {"[1]": {"assay": "Solubility experiment of TH-302 (saturated solution method, HPLC)", "format": "physicochemical", "settings": "thermodynamic from solid", "protocol": "The solubility is measured in an experiment by the saturated solution method; that is, the solid TH-302 was directly charged into the solvent until insoluble matter or turbidity appears. After clarification for a period of time, the solution was directly filtered. The clarified filtrate was taken directly for determination of the concentration of TH-302. The resulting concentration is exactly the solubility of TH-302 in this solvent system. Please refer to Tables 1, 2, and 3 for specific solubility data.\nFor the method for measuring the concentration of TH-302 (mg/ml), please refer to the HPLC method described in the patent WO2008083101A1 owned by Threshold Pharmaceuticals Inc. (see Example 2. An Ethanol Formulation of TH302, for details); and the external standard method was used for quantification."}, "[2]": {"assay": "Saturated solubility of the drug in D5W solution under strong shaking", "format": "physicochemical", "settings": "5% glucose solution (D5W), saline or isotonic, thermodynamic from solid, shaken 2 minutes, filtered, room temperature 24 hours", "protocol": "The TH-302 sample was weighed accurately in an amount of about 60 mg, placed in a transparent vial, and added with 6 mL of 5% glucose solution (D5W). The resulting solution was shaken vigorously for 2 minutes to obtain a solubility- stock solution. It was observed that the solubility-stock solution contained insoluble substances. Thus, the solubility- stock solution was filtered and then became clear. […] This value was exactly the saturated solubility of the drug in D5W solution."}, "[3]": {"assay": "Freeze-thaw cycle stability of freeze-dried formulations", "format": "physicochemical", "settings": "TH-302 active pharmaceutical ingredient used for the two batches", "protocol": "The freeze-thaw test was to place the sample in the dark at (-20°C±5°C) for 2 days, and at (25°C±5°C) for another 2 days, as a cycle. The HPLC purity of TH-302 in the freeze-dried samples was determined. Table 32: HPLC purity test data of TH-302 active pharmaceutical ingredient, two batches of prepared freeze-dried formulations, and the freeze-dried formulations after three freeze-thaw cycles (%)"}, "[4]": {"settings": "concentrated injection with ethanol, dimethlyacetamide, polysorbate 80; mainly induced by dimethlyacetamide; WO2015013448A1; cited from earlier work"}}, "note": "Read-outs that look alike come from different tables or passages of the source.", "data": [{"smiles": "Cn1c(COP(=O)(NCCBr)NCCBr)cnc1[N+](=O)[O-]", "note": "[TH-302]", "values": [{"measurement": "solubility", "setting": "[1]; 1% N,N-dimethylacetamide aqueous solution (volume), water, 1%N,N-dimethlyacetamide aqueous solution (volume), read-out: Solubility", "value": 8050, "unit": "µg/mL"}, {"measurement": "solubility", "setting": "[1]; 1% ethanol aqueous solution (volume), water, read-out: Solubility", "value": 6580, "unit": "µg/mL"}, {"measurement": "solubility", "setting": "[1]; 1% polyethylene glycol aqueous solution (volume), water, read-out: Solubility", "value": 6810, "unit": "µg/mL"}, {"measurement": "solubility", "setting": "[1]; 20% ethanol aqueous solution (volume), aqueous with cosolvent or surfactant or cyclodextrin, read-out: Solubility", "value": 8400, "unit": "µg/mL"}, {"measurement": "solubility", "setting": "[1]; aqueous with cosolvent or surfactant or cyclodextrin, 1%Tween 80 aqueous solution (volume), read-out: Solubility", "value": 7210, "unit": "µg/mL"}, {"measurement": "solubility", "setting": "[1]; aqueous with cosolvent or surfactant or cyclodextrin, 20% tert-butanol aqueous solution, volume ratio, commercial TH-302, read-out: Solubility", "value": 10000, "unit": "µg/mL"}, {"measurement": "solubility", "setting": "[1]; aqueous with cosolvent or surfactant or cyclodextrin, 30% tert-butanol in water, mass ratio, TH-302 synthesized by the applicants, read-out: Solubility", "value": 42000, "unit": "µg/mL"}, {"measurement": "solubility", "setting": "[1]; aqueous with cosolvent or surfactant or cyclodextrin, 40% tert-butanol aqueous solution, volume ratio, commercial TH-302, read-out: Solubility", "value": "> 40000", "unit": "µg/mL"}, {"measurement": "solubility", "setting": "[1]; organic solvent or mixture, 60% tert-butanol in water, mass ratio, TH-302 synthesized by the applicants, read-out: Solubility", "value": 146000, "unit": "µg/mL"}, {"measurement": "solubility", "setting": "[1]; organic solvent or mixture, 70% tert-butanol in water, mass ratio, TH-302 synthesized by the applicants, read-out: Solubility", "value": 165000, "unit": "µg/mL"}, {"measurement": "solubility", "setting": "[1]; organic solvent or mixture, 75% tert-butanol in water, mass ratio, TH-302 synthesized by the applicants, read-out: Solubility", "value": 151000, "unit": "µg/mL"}, {"measurement": "solubility", "setting": "[1]; organic solvent or mixture, 80% tert-butanol aqueous solution, volume ratio, commercial TH-302, read-out: Solubility", "value": 88500, "unit": "µg/mL"}, {"measurement": "solubility", "setting": "[1]; organic solvent or mixture, 80% tert-butanol in water, mass ratio, TH-302 synthesized by the applicants, read-out: Solubility", "value": 143000, "unit": "µg/mL"}, {"measurement": "solubility", "setting": "[1]; organic solvent or mixture, 90% tert-butanol aqueous solution, volume ratio, commercial TH-302, read-out: Solubility", "value": 76400, "unit": "µg/mL"}, {"measurement": "solubility", "setting": "[1]; organic solvent or mixture, 90% tert-butanol in water, mass ratio, TH-302 synthesized by the applicants, read-out: Solubility", "value": 66600, "unit": "µg/mL"}, {"measurement": "solubility", "setting": "[1]; organic solvent or mixture, 90% tert-butanol/10% ethanol, volume ratio, commercial TH-302, read-out: Solubility", "value": 10700, "unit": "µg/mL"}, {"measurement": "solubility", "setting": "[1]; organic solvent or mixture, 95% tert-butanol aqueous solution, volume ratio, commercial TH-302, read-out: Solubility", "value": 32300, "unit": "µg/mL"}, {"measurement": "solubility", "setting": "[1]; organic solvent or mixture, 95% tert-butanol in water, mass ratio, TH-302 synthesized by the applicants, read-out: Solubility", "value": 36800, "unit": "µg/mL"}, {"measurement": "solubility", "setting": "[1]; organic solvent or mixture, 95% tert-butanol/5% ethanol, volume ratio, commercial TH-302, read-out: Solubility", "value": 9980, "unit": "µg/mL"}, {"measurement": "solubility", "setting": "[1]; organic solvent or mixture, 100% tert-butanol, TH-302 synthesized by the applicants, read-out: Solubility", "value": 11800, "unit": "µg/mL"}, {"measurement": "solubility", "setting": "[1]; organic solvent or mixture, tert-butanol, commercial TH-302, read-out: Solubility", "value": 8980, "unit": "µg/mL"}, {"measurement": "solubility", "setting": "[1]; pH 2, simulated gastric fluid, pH2, HCl solution, read-out: Solubility", "value": 6940, "unit": "µg/mL"}, {"measurement": "solubility", "setting": "[1]; pH 4, aqueous buffer, pH4, phthalate buffer solution, read-out: Solubility", "value": 7220, "unit": "µg/mL"}, {"measurement": "solubility", "setting": "[1]; pH 6, aqueous buffer, pH6, phosphate buffer solution, read-out: Solubility", "value": 5810, "unit": "µg/mL"}, {"measurement": "solubility", "setting": "[1]; pH 7, aqueous buffer, pH7, phosphate buffer solution, read-out: Solubility", "value": 5870, "unit": "µg/mL"}, {"measurement": "solubility", "setting": "[1]; pH 8, aqueous buffer, pH8, phosphate buffer solution, read-out: Solubility", "value": 5940, "unit": "µg/mL"}, {"measurement": "solubility", "setting": "[1]; pH 10, aqueous buffer, pH10, borate buffer solution, read-out: Solubility", "value": 6070, "unit": "µg/mL"}, {"measurement": "solubility", "setting": "[1]; tert-butanol-water mixed solvent, aqueous with cosolvent or surfactant or cyclodextrin, summary statement, maximum reached, read-out: solubility in the tert-butanol-water mixed solvent system", "value": "≥ 160000", "unit": "µg/mL"}, {"measurement": "solubility at 2 min", "setting": "[2]", "value": 7250, "unit": "µg/mL"}, {"measurement": "HPLC purity", "setting": "[3]", "value": 95.87, "unit": "%"}, {"measurement": "TH-302 administration reactions", "setting": "[4]", "value": "lip swelling and urticaria"}]}]}
